Measurements from patent US8071549B2, “Compounds capable of affecting differentiation, proliferation, regeneration, plasticity and survival cells” (priority 2001, dated 2011).
Peptide text beside a SMILES is read from it.

Legend:
hippocampal neurons = experiment: Neurite outgrowth from hippocampal neurons; conditions: for neurite outgrowth in dose-response study: bell-shaped dose-response curve, 24 h
Experimental: Neurons were grown on Permanox plastic (Nunc, Denmark) for 24 h at a density 6250 cells/cm^2, at 37° C., 5% CO2 in Neurobasal medium containing 20 mM Hepes, 100 U/ml penicillin, 100 μg/ml streptomycin, 0.4% BSA supplemented with B27 (Gibco BRL, USA). After 24 h, cells were fixed with paraformaldehyde, stained with Coomassie Brilliant Blue R250 and analyzed.
To test this assumption, dissociated neurons from embryonic rat hippocampus were seeded on plastic and allowed to grow for 24 h in the presence of the below described compounds. Thereafter, cells were fixed with paraformaldehyde, stained with Coomassie Brilliant Blue R250 and the length of neurites was measured using a stereological approach (Rønn et al., 2000).
Peptides derived from the FG-lops of the neural cell adhesion molecules L1 and NCAM (third F3-module of L1 and first F3 module of NCAM) were prepared in different lengths, see FIG. 9a, and their effect on neurite outgrowth from primary hippocampal neurons were tested adding the various peptides in a concentration of 25 microM.

[1] = system: Cerebellar granule neurons; experiment: Survival assay of cerebellar granule neurons in low potassium (MTS); assay type: cell-based, rat; conditions: 5 mM potassium, two days; for cells surviving, high potassium set at 100%: serum-free
Experimental: Cerebellar granule neurons (CGN) from 7-days old rats are grown for 7-8 days in the presence of high potassium (40 mM). Cells are washed twice with serum-free culture medium (basal Eagle's medium BME) containing low potassium (5 mM) and grown in serum-free medium supplemented with FGL peptide for two days. Cultures are assayed for cell survival (D'Mello et al., 1997; Villalba et al., 1997; Skaper et al., 1998) by measuring reduction of MTS. MTS is a novel tetrazolium compound (Promega, USA), which is bioreduced by cells into a formazan that is soluble in tissue culture medium. The absorbance of the formazan at 490 nm is measured directly from 96 well assay plates without additional processing. The conversion of MTS into the aqueous soluble formazan is accomplished by dehydrogenase enzymes found in metabolically active cells. The quantity of formazan product as measured by the amount of 490 nm absorbance is directly proportional to the number of living cells in culture (Yao and Cooper, 1995);

FGF-receptor 1 = target: T1, FGF-receptor 1 (Homo sapiens, UniProt P11362); experiment: FGF-receptor phosphorylation in transfected HEK293 cells (immunoblotting); assay type: cell-based; conditions: 25 μM, 20 min, HEK293 cells with His-tagged FGF-receptor 1
T1 construct: expressed in transfected cells; host or cells: HEK293, transient, PcDNA3.1(+) plasmid
T1 sequence (P11362 22-822): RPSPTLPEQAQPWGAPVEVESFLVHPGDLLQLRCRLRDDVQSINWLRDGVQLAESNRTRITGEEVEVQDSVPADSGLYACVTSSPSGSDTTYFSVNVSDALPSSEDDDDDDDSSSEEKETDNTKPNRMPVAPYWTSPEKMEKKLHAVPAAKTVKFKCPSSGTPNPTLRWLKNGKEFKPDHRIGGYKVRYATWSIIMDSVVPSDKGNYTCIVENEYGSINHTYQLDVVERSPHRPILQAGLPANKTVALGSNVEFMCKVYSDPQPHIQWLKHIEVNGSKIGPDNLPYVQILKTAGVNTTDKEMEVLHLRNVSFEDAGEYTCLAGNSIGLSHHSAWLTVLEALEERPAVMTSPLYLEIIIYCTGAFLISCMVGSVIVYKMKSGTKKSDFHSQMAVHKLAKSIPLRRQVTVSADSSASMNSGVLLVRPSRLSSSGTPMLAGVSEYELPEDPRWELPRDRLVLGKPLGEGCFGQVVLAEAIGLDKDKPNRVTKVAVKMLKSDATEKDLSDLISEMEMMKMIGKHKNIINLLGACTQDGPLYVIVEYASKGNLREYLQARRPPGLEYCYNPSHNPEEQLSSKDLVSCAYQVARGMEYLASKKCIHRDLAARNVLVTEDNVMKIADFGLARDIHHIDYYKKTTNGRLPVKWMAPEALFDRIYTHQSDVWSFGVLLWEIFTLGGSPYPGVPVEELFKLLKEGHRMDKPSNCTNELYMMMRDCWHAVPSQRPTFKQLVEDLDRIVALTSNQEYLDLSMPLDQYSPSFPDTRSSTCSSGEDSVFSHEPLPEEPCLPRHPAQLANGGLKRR
Experimental: Cells were grown in DMEM 1965 with 10% FCS, 100 U/ml penicillin, 100 μg/ml streptomycin and 58.4 g/l Glutamax. ˜0.8*10^6 cells were plated in 60 mm plates and cultured for 24 hrs before being transfected using LipofectAMIN PLUS™ reagent kit according to manufacturers instructions (Gibco BRL) with 0.2 μg PcDNA3.1(+) plasmid encoding a his-tagged (C-terminal hexa-histidine) version of FGFR-1. Cells were grown another 24 hrs in full medium, and then shifted to starving media (DMEM 1965 with 0.5% FCS) overnight.
FGFR-1 transfected cells, incubated with 50 μg/ml NCAM derived recombinant fIII.2 or FG-loop for 20 minutes or non-stimulated, were lysed in 8M urea in PBS with 1 mM orthovanadate. The FGFR-1 was purified from total lysate via the His-tag moiety on an IMAC column. […] Samples were added SDS-PAGE sample buffer and analysed by western blotting using anti-pentahis ab (#34660 Qiagen) or anti-phosphotyrosine ab (PY20) (#11120 Transduction Laboratories). Bands were visualised by chemilumiscense and density was measured using a GeneGnome from SynGene with a 16 bit camera.
Therefore, HEK293 cells were grown for 24 h on plastic plates, and subsequently transfected with a His-tagged version of the FGF-receptor 1 and cultured for another 24 h. […] The purified FGF-receptor 1 was then analyzed by immunoblotting using antibodies either to the His-tag or phosphotyrosine. […]

Nc1ncnc2c1ncn2[C@@H]1O[C@H](COP(=O)(O)OP(=O)(O)CP(=O)(O)O)[C@@H](O)[C@H]1O [AMP-PCP, reference compound]
inhibition of the neuritogenic effect of the F3 module (hippocampal neurons; 5 μM second F3 module, inhibitor 0.4 or 1 mM): complete inhibition
effect on neurite outgrowth when added alone (hippocampal neurons; 0.4 or 1 mM): did not have any effect

CC(C)[C@H](NC(=O)[C@H](Cc1ccc(O)cc1)NC(=O)[C@@H](NC(=O)[C@@H](N)CCC(=O)O)C(C)C)C(=O)N[C@H](C(=O)N[C@@H](C)C(=O)N[C@@H](CCC(=O)O)C(=O)N[C@@H](CC(N)=O)C(=O)N[C@@H](CCC(N)=O)C(=O)N[C@@H](CCC(N)=O)C(=O)NCC(=O)N[C@@H](CCCCN)C(=O)N[C@@H](CO)C(=O)N[C@@H](CCCCN)C(=O)N[C@@H](C)C(=O)O)C(C)C [FG loop peptide] (H-EVYVVAENQQGKSKA-OH)
survival, % of the positive control ([1]; 250 microgram per ml, monomeric form): up to 90%
survival, result in words ([1]; dose-range 2-250 microgram per ml): statistically significant survival
inhibition of induced neurite outgrowth by an antibody against the FGF-receptor (hippocampal neurons; 5 μM second F3 module or 50 μM FG loop peptide): complete inhibition
neurite outgrowth in dose-response study (hippocampal neurons): induced neurite outgrowth
increase of FGF-receptor phosphorylation compared to control cells (FGF-receptor 1): approx. 100%

AENQQGK [heptamer Ala 77-Lys 83]
stimulatory effect retained as compared to the entire (non-mutated) FG loop peptide (hippocampal neurons; 50 μM peptide): approximately 50%
neurite outgrowth in dose-response study (hippocampal neurons): induced neurite outgrowth
neuritogenic efficiency compared with the extended form (hippocampal neurons; dose-response study): less efficient than the extended form

AMKEDGR (listed as Homo sapiens)
neuritogenic potency (neurite outgrowth), result in words (hippocampal neurons; 50 μM peptide): to the same extent as the similar seven amino acids from the second F3 module of NCAM

EVAVVAENQQGASAA (listed as Homo sapiens)
neuritogenic potency (neurite outgrowth), result in words (hippocampal neurons; 50 μM peptide): retained its neuritogenic potency
stimulatory effect retained as compared to the entire (non-mutated) FG loop peptide (hippocampal neurons; 50 μM peptide): about 60%
inhibition of the peptide's stimulatory effect by ATP (hippocampal neurons; 50 μM peptide, ATP 0.4 or 1 mM): could no longer be inhibited by ATP

VAENQQGKS (listed as Homo sapiens) [nonamer Val 76-Ser 84]
stimulatory effect retained as compared to the entire (non-mutated) FG loop peptide (hippocampal neurons; 50 μM peptide): approximately 50%

basic fibroblast growth factor: growth factor, natural ligand of the FGF-receptor, comparison in the survival assay [reference compound]
cells surviving, high potassium set at 100% [1]: ~60%

B1: brains-derived neurotrophic factor: neurotrophic factor used as comparison in the survival assay (protein, UniProt P23560 19-247, looked up)
Neurotrophic factor BDNF …: APMKEANIRGQGGLAYPGVRTHGTLESVNGPKAGSRGLTSLADTFEHVIEELLDEDQKVRPNEENNKDADLYTSRVMLSSQVPLEPPLLFLLEEYKNYLDAANMSMRVRRHSDPARRGELSVCDSISEWVTAADKKTAVDMSGGTVTVLEKVPVSKGQLKQYFYETKCNPMGYTKEGCRGIDKRHWNSQCRTTQSYVRALTMDSKKRIGWRFIRIDTSCVCTLTIKRGR
cells surviving, high potassium set at 100% [1]: ~60%
